In article PMC3553236 (Biochemical pharmacology, 2012):
Read-outs that look alike come from different tables or passages of the source.

Columns and labels:
[1] = tested on: pcDNA-HEK293 cells; test: Cytotoxicity / MDR reversal assay, pcDNA-HEK293; format: cell-based; conditions: Homo sapiens
[2] = Cytotoxicity / MDR reversal assay, MDR19-HEK293; format: cell-based, human; conditions: human, MDR19-HEK293 cells (ABCB1-transfected HEK293)
[3] = tested on: MDR19-HEK293 (ABCB1) cells; test: Cytotoxicity / MDR reversal assay, MDR19-HEK293; format: cell-based, human; conditions: for R.R of doxorubicin in the presence of the treatment: MDR19-HEK293 / pcDNA-HEK293
[4] = tested on: MRP1-HEK293 (ABCC1) cells; conditions: for R.R of etoposide in the presence of the treatment: MRP1-HEK293 / pcDNA-HEK293
[5] = in vitro; conditions: human, MRP1-HEK293 cells (ABCC1-transfected HEK293)
[6] = tested on: A375-G2 cells; test: cells; format: cell-based, human; conditions: for IC50: Homo sapiens, A-375
[7] = tested on: R482-HEK293 (ABCG2) cells; test: in vitro; format: cell-based, human; conditions: for R.R (relative resistance): IC50 R482-HEK293 / IC50 pcDNA-HEK293, drug alone
[8] = target: T1, ABCG2 (Homo sapiens, UniProt Q9UNQ0)
T1 sequence (Q9UNQ0 1-655): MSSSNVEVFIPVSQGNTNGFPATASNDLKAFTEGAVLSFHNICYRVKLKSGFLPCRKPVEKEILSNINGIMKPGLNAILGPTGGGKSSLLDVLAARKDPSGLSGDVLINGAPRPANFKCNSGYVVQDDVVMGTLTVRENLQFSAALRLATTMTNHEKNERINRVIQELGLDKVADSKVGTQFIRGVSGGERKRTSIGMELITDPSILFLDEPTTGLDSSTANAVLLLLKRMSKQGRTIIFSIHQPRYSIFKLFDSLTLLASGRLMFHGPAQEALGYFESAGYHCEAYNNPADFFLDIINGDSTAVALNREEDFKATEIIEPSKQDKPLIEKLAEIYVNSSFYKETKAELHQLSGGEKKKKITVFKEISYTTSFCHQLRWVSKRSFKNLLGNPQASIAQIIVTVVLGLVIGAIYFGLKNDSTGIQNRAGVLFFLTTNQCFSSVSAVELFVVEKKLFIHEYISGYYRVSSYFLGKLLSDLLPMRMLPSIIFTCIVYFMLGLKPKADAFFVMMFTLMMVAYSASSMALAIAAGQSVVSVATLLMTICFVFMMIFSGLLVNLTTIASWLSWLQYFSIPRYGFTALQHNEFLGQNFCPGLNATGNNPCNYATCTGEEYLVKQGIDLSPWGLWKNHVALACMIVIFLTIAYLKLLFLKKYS

[9] = tested on: BRAF(V600E) mutant A375 melanoma cells; test: cells; format: cell-based, human
[10] = in vitro; format: cell-based, human; conditions: human, R482-HEK293 cells (ABCG2-transfected HEK293)
[11] = tested on: KB-3-1 cells; test: Cytotoxicity assay; format: cell-based; conditions: Homo sapiens
[12] = tested on: CORL-23/P cells; test: Cytotoxicity assay; format: cell-based; conditions: Homo sapiens, COR-L23
[13] = tested on: MCF7 cells; test: Cytotoxicity assay; format: cell-based; conditions: Homo sapiens
[14] = tested on: S1 cells; test: Cytotoxicity assay; format: cell-based; conditions: Homo sapiens
[15] = tested on: Colo-205 cells; test: Cytotoxicity assay; format: cell-based; conditions: Homo sapiens
[16] = tested on: drug sensitive parental cells; test: Fluorescent probe accumulation in drug sensitive parental cells; format: cell-based, human; conditions: up to 50 µM
[17] = target: T2, ABCB1 (Homo sapiens, UniProt P08183); test: Vi-sensitive ATPase activity of ABCB1; format: biochemical
T2 sequence (P08183 whole entry): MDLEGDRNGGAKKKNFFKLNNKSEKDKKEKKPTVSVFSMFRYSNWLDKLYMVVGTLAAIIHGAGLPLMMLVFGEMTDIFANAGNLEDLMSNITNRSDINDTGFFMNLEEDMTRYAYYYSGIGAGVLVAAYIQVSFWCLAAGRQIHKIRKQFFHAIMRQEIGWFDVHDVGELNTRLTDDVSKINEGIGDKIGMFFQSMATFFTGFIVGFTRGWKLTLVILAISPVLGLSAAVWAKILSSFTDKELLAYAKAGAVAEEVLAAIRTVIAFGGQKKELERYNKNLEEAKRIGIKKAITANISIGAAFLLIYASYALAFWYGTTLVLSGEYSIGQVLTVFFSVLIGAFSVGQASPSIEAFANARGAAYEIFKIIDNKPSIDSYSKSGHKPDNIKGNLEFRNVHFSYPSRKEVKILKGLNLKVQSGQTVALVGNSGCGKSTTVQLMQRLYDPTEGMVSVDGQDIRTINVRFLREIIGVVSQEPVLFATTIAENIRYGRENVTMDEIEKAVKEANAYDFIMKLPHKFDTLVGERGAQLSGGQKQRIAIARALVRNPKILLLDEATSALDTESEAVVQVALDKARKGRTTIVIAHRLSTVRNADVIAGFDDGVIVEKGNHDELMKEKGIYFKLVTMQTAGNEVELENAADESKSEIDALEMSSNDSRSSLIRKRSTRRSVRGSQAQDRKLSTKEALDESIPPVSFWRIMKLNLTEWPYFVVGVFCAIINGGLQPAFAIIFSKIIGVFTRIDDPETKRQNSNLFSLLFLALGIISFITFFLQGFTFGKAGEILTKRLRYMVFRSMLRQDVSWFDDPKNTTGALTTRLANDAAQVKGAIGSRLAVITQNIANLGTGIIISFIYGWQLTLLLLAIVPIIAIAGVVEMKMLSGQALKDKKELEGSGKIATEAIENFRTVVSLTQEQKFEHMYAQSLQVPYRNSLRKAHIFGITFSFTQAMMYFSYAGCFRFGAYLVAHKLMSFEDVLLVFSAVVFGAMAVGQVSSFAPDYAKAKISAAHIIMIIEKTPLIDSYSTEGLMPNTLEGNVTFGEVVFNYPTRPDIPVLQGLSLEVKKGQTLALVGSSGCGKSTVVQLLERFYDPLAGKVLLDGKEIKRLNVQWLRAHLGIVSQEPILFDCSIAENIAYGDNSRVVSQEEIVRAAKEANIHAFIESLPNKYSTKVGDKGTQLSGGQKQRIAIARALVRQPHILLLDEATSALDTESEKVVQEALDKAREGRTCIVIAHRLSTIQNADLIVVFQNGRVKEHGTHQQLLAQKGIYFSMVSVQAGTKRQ

[18] = target: T1, ABCG2; test: Vi-sensitive ATPase activity of ABCG2; format: biochemical
[19] = tested on: ABCC1; format: cell-based, human; conditions: CORL-23/R; 0.3 µM-10 µM, 72 h
[20] = tested on: BRAF kinase; test: BRAF kinase activity in A375 and A375-G2 cells; format: cell-based, human; conditions: 0.2 – 5.0 µM, 4 h
[21] = tested on: ABCG2; conditions: 2 µM; ABCG2-overexpressing HEK293, MCF7-FLV1000, MCF7-AdVp3000 and S1-M1-80
[22] = tested on: ABCB1; conditions: KBV-1; 0.3 µM-10 µM, 72 h
[23] = tested on: KBV-1 cells; test: cells; conditions: Homo sapiens, KB-V1
[24] = tested on: ABCG2; conditions: MCF7-FLV1000; 0.3 µM-10 µM, 72 h
[25] = tested on: CORL-23/R cells; test: cells; conditions: Homo sapiens, COR-L23/R
[26] = tested on: MCF7-FLV1000 cells; test: cells; conditions: Homo sapiens, MCF-7 FLV1000
[27] = tested on: MCF7-AdVp3000 cells; test: cells; conditions: Homo sapiens
[28] = tested on: S1-M1-80 cells; test: cells; conditions: Homo sapiens
[29] = target: T2, ABCB1; test: cell-based
[30] = target: T1, ABCG2; test: biochemical
[31] = target: T2, ABCB1; test: ABCB1-mediated calcein-AM efflux, flow cytometry; conditions: 2 µM, MDR19-HEK293 and KBV-1
[32] = target: ABCG2 (R482G) (Homo sapiens, UniProt Q9UNQ0, R482G); test: ABCG2-mediated mitoxantrone efflux, flow cytometry, S1-M1-80
Chain of ABCG2 (R482G) (Q9UNQ0 whole entry R482G): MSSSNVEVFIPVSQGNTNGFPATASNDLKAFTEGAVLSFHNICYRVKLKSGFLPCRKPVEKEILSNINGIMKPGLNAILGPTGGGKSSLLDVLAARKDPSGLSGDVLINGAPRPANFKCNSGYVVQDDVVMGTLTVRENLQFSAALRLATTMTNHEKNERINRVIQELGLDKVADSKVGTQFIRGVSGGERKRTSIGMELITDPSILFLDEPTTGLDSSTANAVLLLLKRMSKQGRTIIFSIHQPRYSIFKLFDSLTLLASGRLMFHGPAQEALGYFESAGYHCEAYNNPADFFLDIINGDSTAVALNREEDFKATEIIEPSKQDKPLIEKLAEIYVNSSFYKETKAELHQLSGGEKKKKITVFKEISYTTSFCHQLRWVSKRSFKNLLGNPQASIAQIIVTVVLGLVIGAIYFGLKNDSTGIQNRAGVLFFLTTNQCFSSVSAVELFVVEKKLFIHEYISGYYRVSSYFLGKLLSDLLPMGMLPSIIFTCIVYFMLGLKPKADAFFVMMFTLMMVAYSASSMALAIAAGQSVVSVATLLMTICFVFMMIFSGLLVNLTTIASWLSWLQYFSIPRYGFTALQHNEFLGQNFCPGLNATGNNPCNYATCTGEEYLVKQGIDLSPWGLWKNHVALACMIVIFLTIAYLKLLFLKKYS

[33] = target: ABCG2 (wild type R482) (Homo sapiens, UniProt Q9UNQ0); test: ABCG2-mediated mitoxantrone efflux, flow cytometry, MCF7-FLV1000
[34] = target: ABCG2 (R482T) (Homo sapiens, UniProt Q9UNQ0, R482T); test: ABCG2-mediated mitoxantrone efflux, flow cytometry, MCF7-AdVp3000
Chain of ABCG2 (R482T) (Q9UNQ0 whole entry R482T): as the sequence (Q9UNQ0 whole entry R482G) above, with G482T counted along it

[35] = target: T2, ABCB1; test: [125I]IAAP photoaffinity labeling of ABCB1
[36] = doxorubicin + treatment at 1 µM

SMILES: COc1cccc2c1C(=O)c1c(O)c3c(c(O)c1C2=O)C[C@@](O)(C(=O)CO)C[C@@H]3O[C@H]1C[C@H](N)[C@H](O)[C@H](C)O1 [Doxorubicin]
- IC50 [1]: 18.5 ± 8.31 nM
- IC50 [2]: 594 ± 78 nM
- R.R (relative resistance) ([3]; IC50 MDR19-HEK293 / IC50 pcDNA-HEK293, drug alone): 32

SMILES: COc1cc([C@@H]2c3cc4c(cc3[C@@H](O[C@@H]3O[C@@H]5CO[C@@H](C)O[C@H]5[C@H](O)[C@H]3O)[C@H]3COC(=O)[C@H]23)OCO4)cc(OC)c1O [Etoposide]
- IC50 [1]: 217 ± 72 nM
- R.R (relative resistance) ([4]; IC50 MRP1-HEK293 / IC50 pcDNA-HEK293, drug alone): 161
- IC50 [5]: 34900 ± 4030 nM

SMILES: COc1ccc2c3c([nH]c2c1)[C@H](C=C(C)C)N1C(=O)[C@@H]2CCCN2C(=O)[C@@H]1C3 [FTC, Fumitremorgin C]
- R.R of mitoxantrone in the presence of the treatment ([6]; A375-G2 / A375, mitoxantrone + treatment at 3 µM): 2
- R.R of vemurafenib in the presence of the treatment ([6]; A375-G2 / A375, vemurafenib + treatment at 3 µM): 1
- reversal of ABCG2-mediated resistance to vemurafenib ([6]; A375-G2, FTC 3 µM (Table 2)): reversed completely
- R.R of mitoxantrone in the presence of the treatment ([7]; R482-HEK293 / pcDNA-HEK293, mitoxantrone + treatment at 3 µM): 5
- R.R of topotecan in the presence of the treatment ([7]; R482-HEK293 / pcDNA-HEK293, topotecan + treatment at 3 µM): 3
- ABCG2-mediated efflux of pheophorbide A ([8]; A375-G2, 5 µM): inhibited completely

SMILES: O=C1c2c(O)ccc(O)c2C(=O)c2c(NCCNCCO)ccc(NCCNCCO)c21 [Mitoxantrone]
- IC50 ([9]; Homo sapiens, A-375, A375, drug alone): 2.35 ± 0.64 nM
- fold more resistant, A375-G2 than parental A375 cells [6]: over 6 fold
- IC50 [6]: 15 ± 3.48 nM
- R.R (relative resistance) ([6]; IC50 A375-G2 / IC50 A375, drug alone): 6
- IC50 [1]: 5.3 ± 1.24 nM
- IC50 [10]: 178 ± 19 nM
- R.R (relative resistance) [7]: 34

SMILES: COc1cc2c(cc1OC)CN(CCc1ccc(NC(=O)c3cc(OC)c(OC)cc3NC(=O)c3cnc4ccccc4c3)cc1)CC2 [Tariquidar]
- R.R of doxorubicin in the presence of the treatment [3, 36]: 3

SMILES: CC[C@@]1(O)C(=O)OCc2c1cc1n(c2=O)Cc2cc3c(CN(C)C)c(O)ccc3nc2-1 [Topotecan]
- IC50 [1]: 18.3 ± 4.48 nM
- IC50 [10]: 510 ± 94.5 nM
- R.R (relative resistance) [7]: 28

SMILES: CCCS(=O)(=O)Nc1ccc(F)c(C(=O)c2c[nH]c3ncc(-c4ccc(Cl)cc4)cc23)c1F [Vemurafenib]
- IC50 [11]: 14800 ± 4190 nM
- IC50 [12]: 8520 ± 1390 nM
- IC50 [13]: 53600 ± 9420 nM
- IC50 [14]: 13600 ± 3840 nM
- IC50 [15]: 118 ± 11 nM
- R.R of mitoxantrone in the presence of the treatment ([6]; A375-G2 / A375, mitoxantrone + treatment at 0.02 µM): 2
- IC50 [6]: 215 ± 32.8 nM
- IC50 [1]: 28100 ± 6930 nM
- re-sensitization of R482-HEK293 cells to mitoxantrone [7]: ~ 6 fold
- re-sensitization of R482-HEK293 cells to topotecan [7]: ~ 9 fold
- R.R of doxorubicin in the presence of the treatment [3, 36]: 23
- R.R of doxorubicin in the presence of the treatment ([3]; doxorubicin + treatment at 2 µM): 23
- R.R of doxorubicin in the presence of the treatment ([3]; doxorubicin + treatment at 5 µM): 22
- effect on accumulation of fluorescent probes in drug sensitive parental cells [16]: no effect
- inhibition of ATPase activity ([17]; higher concentrations): ~ 50%
- stimulation of ATPase activity above basal level ([17]; lower concentrations): ~ 40%
- inhibition of ATPase activity ([18]; higher concentrations): ~ 90%
- stimulation of ATPase activity above basal level ([18]; lower concentrations): ~ 95%
- effect on ABCC1 protein expression level [19]: no significant effect
- inhibitory effect on p-MEK1/2, A375 versus A375-G2 [20]: comparable
- levels of total MEK1/2 and ERK1/2 ([20]; A375 and A375-G2): remained unchanged
- levels of p-MEK1/2 and p-ERK1/2 ([20]; A375 and A375-G2, concentration-dependent): reduced
- R.R of etoposide in the presence of the treatment ([4]; etoposide + treatment at 1 µM): 159
- R.R of etoposide in the presence of the treatment ([4]; etoposide + treatment at 2 µM): 165
- R.R of etoposide in the presence of the treatment ([4]; etoposide + treatment at 5 µM): 116
- ABCG2-mediated efflux of PhA [21]: inhibited significantly
- effect on ABCB1 protein expression level [22]: no significant effect
- IC50 [23]: 16900 ± 4970 nM
- effect on ABCG2 protein expression level [24]: no significant effect
- ABCG2-mediated efflux of pheophorbide A [8]: inhibited completely
- IC50 [25]: 8540 ± 2250 nM
- IC50 [26]: 58700 ± 15800 nM
- IC50 [27]: 70000 ± 27400 nM
- IC50 [28]: 14700 ± 3020 nM
- IC50 [5]: 21800 ± 2560 nM
- IC50 [29]: > 50000 nM
- IC50 [30]: 570 nM
- effect on drug efflux mediated by ABCB1 [31]: no significant effect
- IC50 [32]: 2600 nM
- IC50 [33]: 1240 nM
- IC50 [34]: 4910 nM
- IC50 [35]: 4510 nM
